US12398110B2, “Second generation inhibitors of mitochondrial permeability transition pore with improved plasma stability” (Oregon Health & Science University, priority 2019, dated 2025)
Read-outs that look alike come from different tables or passages of the source.

Legend:
[1] = Plasma stability determination in mouse plasma; type: in vitro ADME; conditions: mouse, read-out: Mouse Plasma t1/2
Procedure: Plasma stability determination. The degradation of TR001 in the presence of mouse plasma (from Innovative Research) was used to predict the plasma stability of the compound to esterase catalyzed hydrolysis. A positive control for plasma cholinesterase, propantheline bromide, was included in all assays. Briefly, murine plasma was incubated with 1 μm TR001. Aliquots were removed at t=0, 5, 15, 30, and 60 and 120 min and quenched with acetonitrile containing structurally related compound (TR073) as the internal standard. The amount of TR001 remaining in the supernatant was assessed by LC-MS/MS in multiple reaction monitoring mode (MRM) using a 4000 QTRAP (SCIEX) with electrospray ionization source. The instrument was operated in negative mode with source parameters: source voltage […], GS1 50, GS2 50, CUR 30, TEM 650 and CAD gas MED. Optimal MRM transitions were obtained by direct infusion of the pure compound into the source. The mass spectrometer was interfaced to a Shimadzu (Columbia, MD) SIL-20AC XR auto-sampler maintained at 35° C. followed by 2 LC-20AD XR LC pumps. The internal standard and compound of interest were resolved using a Gemini-NX C18 50×2.1 mm column (Phenomenex) with 0.1% formic acid (solvent A) and 0.1% formic acid in acetonitrile (solvent B). The injection volume was 10 μL at a flow rate of 0.75 mL/min. The gradient elution was 10% B to 95% B over 5 min and held at 95% for 1 min before returning to start conditions. The column was maintained at 40° C. using a Shimadzu CTO-20AC column oven. Data were acquired using Analyst 1.6.2 and analyzed using Multiquant 3.0.1 software. The first-order rate constant for substrate depletion was determined from a linear least squares fit of the natural log of the percent parent compound remaining versus time. The rate constant was used to calculate the plasma half-life as an indicator of stability.

mitochondria = conditions: from Roy et al. [12]; cited from earlier work
mtPTP [2] = experiment: Ca2+ overload induced mitochondrial swelling in isolated mouse liver mitochondria; type: biochemical; conditions: for mtPTP inhibitory activity (in words): SAR discussion of Table 2
Procedure: We next sought to evaluate the effects of TR001-13 on mtPTP activity in vitro. This was performed on isolated mitochondria. In isolated mitochondria induction of mtPTP opening leads to mitochondrial swelling due to the oncotic pressure gradient created by matrix proteins >1.5 kDa that cannot diffuse through the open pore. In in vitro experiments, where isolated mitochondria are routinely suspended in sucrose-based isosmotic solutions, the change in mitochondrial size can be measured spectrometrically by detecting the decrease in light scattering at 540 nm.
(§1) Isolation of mitochondria. C57BL6/N mouse liver mitochondria were prepared from 2 to 6 month old male mice by standard differential centrifugation. Mice fed ad libitum were euthanized with CO2 followed cervical dislocation, their livers were existed and placed in a glass beaker containing ice-cold isolation buffer (IB: 0.25 m sucrose, 10 mm Tris-HCl, 0.1 mm EGTA-Tris, pH 7.4) supplemented with fatty acid free bovine serum albumin. Livers were then cut into small pieces with scissors, rinsed with ice-cold IB, and passed through a pre-chilled Potter homogenizer with Teflon pestle. The homogenate (˜30 mL per liver) was transferred to centrifuge tubes, and unbroken cells and nuclei were removed by centrifugation at 700 g for 10 min at 4° C. The supernatant containing mitochondria and other organelles was transferred to new tubes and centrifuged at 6000 g for 10 min at 4° C. The resulting supernatant was discarded and mitochondrial pellet was carefully suspended in ice-cold IB and spun at 9500 g for 5 min at 4° C. The pellet was suspended in IB to give a protein concentration of ˜60-80 mg/mL and stored on ice. Experiments were started immediately and completed within 5 h. Protein concentration was determined by the Biuret method.
Assessment of mitochondrial swelling. Changes in mitochondrial volume of isolated mouse liver mitochondria were followed in a 96-well clear assay plate at a final volume of 0.2 mL and 0.25 mg/mL mitochondrial protein. Absorbance was read for 30 min at 540 nm on a Tecan Infinite F200 plate reader. Activity of test compounds was addressed as follows: First, 0.1 mL of sucrose assay buffer (SAB: 0.250 m sucrose, 10 mm MOPS-Tris, 0.01 mm EGTA-Tris, 1.0 mm phosphoric acid-Tris, 10 mm glutamate and 5 mm malate, pH 7.4) supplemented with twice the CaCl2 concentration required to induce mitochondrial swelling (which was determined for each preparation of mitochondria, typically 50 μm) was dispensed to the assay plate. A set of wells also contained 2.0 mm EGTA (to prevent mitochondrial swelling). The test wells contained a range of concentrations (in 1:2 serial dilutions) of the compounds of interest or 2% DMSO. Experiments were started by the addition of 0.1 mL of mitochondrial suspension (0.5 mg/mL mitochondria in SAB without respiratory substrates) to the assay plates. EC50s±SE were determined with OriginPro software by applying Hill1 function fitting algorithm on average concentration response data of n=3-41 independent preparations.

mtPTP [3] = experiment: Ca2+ retention capacity (CRC) of isolated mouse liver mitochondria; type: biochemical
Procedure: CRC determines the Ca^2+ threshold required for mtPTP activation; inhibitors of mtPTP are expected to increase the Ca^2+ threshold required for mtPTP induction. Extramitochondrial Ca^2+ changes are detected using the membrane-impermeant Ca^2+ indicator, Calcium Green-5N.
as §1
Assessment of Ca^2+ retention capacity (CRC). CRC of isolated mouse liver mitochondria was assessed as follows: First, 0.1 mL of SAB were dispensed to a 96-well black assay plate in the presence of 2% DMSO (control wells) or varying concentrations of test compounds, in 1:2 serial dilutions. Then, 0.1 mL of 0.5 mg/mL mitochondria in SAB devoid of respiratory substrates, but supplemented with 1 μm Calcium Green-5N were added to all wells of the assay plate. A train of 10 μm CaCl2 pulses was added at 2 min intervals, and fluorescence intensity (ex/em 485/535 nm) was read on Tecan Infinite F200 plate reader.

[4] = system: inner mitochondrial membrane potential; experiment: Rhodamine 123 (Rh123) uptake, mitochondrial membrane potential of isolated mouse liver mitochondria; type: biochemical
Text: We next evaluated the mitochondrial toxicity of the new triazole analogs by testing their ability to interfere with accumulation of the membrane-permeant cationic fluorescent dye rhodamine 123 (Rh123). The mitochondrial uptake of positively charged Rh123 is driven by the inside negative IMM potential, which is built by the respiratory chain or maintained by ATP hydrolysis if certain conditions are met. […] It should be noted, however, that toxicity for these compounds only occurs at ˜10-1000-fold higher concentrations compared to mtPTP inhibition, providing a good therapeutic window.
Assessment of mitochondrial membrane potential. Mitochondrial membrane potential—to evaluate toxicity—of isolated mouse liver mitochondria was assessed based on fluorescence quenching of the cationic fluorescent dye Rh123 upon its accumulation into mitochondrial matrix due to inside negative membrane potential. Compounds that interfere with the build-up or maintenance of IMM potential would shift Rh123 fluorescence to higher values compared to DMSO treated samples. Uncoupler FCCP was used to account for nonspecific fluorescence. First, 0.1 mL of SAB was dispensed to a 96-well black assay plate. A set of wells also contained 0.8 μm FCCP (to prevent Rh123 uptake). The test wells contained a range of concentrations (in 1:2 serial dilutions) of the compounds of interest or 2% DMSO. Then, 0.1 mL of 0.5 mg/mL mitochondria in SAB devoid of respiratory substrates but supplemented with 0.8 μm Rh123 were added to all wells of the assay plate. Fluorescence intensity (ex/em 485/535 nm) was read on a Tecan Infinite F200 plate reader for 7 min and value at 5 min was considered for analysis. EC50s±SE were determined with OriginPro software by applying Hill1 function fitting algorithm on average concentration response data of n=3 independent preparations.

[5] = Mouse Liver Mitochondria (MLM), comparative examples, read-out: Swelling EC50
[6] = Mouse Liver Mitochondria (MLM), comparative examples
[7] = Mouse Liver Mitochondria (MLM), comparative examples, read-out: Rh123 EC50
[8] = isolated mouse liver mitochondria, average ± SEM, n = 3-41, read-out: Mitochondrial Swelling EC50
[9] = compound treated CRC to DMSO treated CRC0 ratio, 1.25 μM, average ± SEM, n = 3-25
[10] = interference with Rh123 uptake to mitochondria, average ± SEM, n = 3, read-out: Rh123 uptake EC50

Row | EC50 (mtPTP [2]; [5]) [µM] | EC50 [4, 7] [µM] | Compound | CRC/CRC0 at 1.25 μM (mtPTP [3]; [6]) | further results
1 |  |  | COc1ccc(-c2cc(C(=O)Nc3cc(Cl)cnc3C)nn2C)cc1O [Compound 74] |  | half-life at 1 µM [1]: 2.52 h; mitochondrial toxicity (mitochondria): exhibited mitochondrial toxicity
2 | > 20 | > 40 | Cc1ccc(Cl)cc1NC(=O)c1cn(-c2cc(O)ccc2F)nn1 [drawing 53] | 1.4 | 
3 |  |  | Cc1ccc(Cl)cc1NC(=O)c1cn(-c2cccc(O)c2C)nn1 [TR012, N-(5-chloro-2-methylphenyl)-1-(3-hydroxy-2-methylphenyl)-1H-1,2,3-triazole-4-carboxamide] |  | mtPTP inhibitory activity (in words) (mtPTP [2]): inactive; EC50 (mtPTP [2]; [8]): 10.6 ± 1.4 µM; CRC/CRC0 at 1.25 μM (mtPTP [3]; [9]): 1.4 ± 0.1; EC50 [4, 10]: > 40 µM
4 |  |  | Cc1ccc(Cl)cc1NC(=O)c1cn(-c2cccc(O)c2F)nn1 [TR003, N-(5-chloro-2-methylphenyl)-1-(2-fluoro-3-hydroxyphenyl)-1H-1,2,3-triazole-4-carboxamide] |  | EC50 (mtPTP [2]; [8]): 0.152 ± 0.036 µM; fold decrease in activity compared to TR001 (mtPTP [2]; mitochondrial swelling, vs TR001): 5 fold; CRC/CRC0 at 1.25 μM (mtPTP [3]; [9]): 7.4 ± 0.5; EC50 [4, 10]: 29.3 ± 3.3 µM
5 | 0.028 | 14.7 | Cc1ccc(I)cc1NC(=O)c1cn(-c2ccc(F)c(O)c2)nn1 | 8.3 | 
6 | 7 | > 40 | C#Cc1ccc(C)c(NC(=O)c2cn(-c3ccc(F)c(O)c3)nn2)c1 | 1.3 | 
7 | 8.7 | > 40 | CCCOc1ccc(Cl)cc1NC(=O)c1cn(-c2ccc(F)c(O)c2)nn1 | 1.8 | 
8 |  |  | Cc1ccc(Cl)cc1NC(=O)c1cc(-c2ccc(F)c(O)c2)[nH]n1 [Compound 72] |  | half-life at 1 µM [1]: 8.88 h; mitochondrial toxicity (mitochondria): exhibited mitochondrial toxicity
9 |  |  | Cc1ccc(-n2cc(C(=O)Nc3cc(Cl)ccc3C)nn2)cc1O [TR011, N-(5-chloro-2-methylphenyl)-1-(3-hydroxy-4-methylphenyl)-1H-1,2,3-triazole-4-carboxamide] |  | mtPTP inhibitory activity (in words) (mtPTP [2]): inactive; EC50 (mtPTP [2]; [8]): > 20 µM; CRC/CRC0 at 1.25 μM (mtPTP [3]; [9]): 1.4 ± 0.1; EC50 [4, 10]: > 40 µM
10 |  |  | COc1ccc(-c2cc(C(=O)Nc3cc(Cl)ccc3C)nn2C)cc1O [Compound 73] |  | half-life at 1 µM [1]: 1.42 h; mitochondrial toxicity (mitochondria): exhibited mitochondrial toxicity
11 | 0.135 | > 40 | Cc1ccc(Cl)cc1NC(=O)c1cn(-c2ccc(Cl)c(O)c2)nn1 [drawing 59] | 3.9 | 
12 | 0.782 | > 40 | Cc1ccc(Cl)cc1NC(=O)c1cn(-c2ccc(F)c(O)c2F)nn1 [drawing 58] | 2.6 | 
13 | 0.578 | > 40 | Cc1ccc(N=[N+]=[N-])cc1NC(=O)c1cn(-c2ccc(F)c(O)c2)nn1 | 2.4 | 
14 | 0.152 | 29 | Cc1ccc(Cl)cc1NC(=O)c1cn(-c2cccc(O)c2F)nn1 [drawing 51] | 7.8 | 
15 | 0.0051 | > 40 | Cc1c(Cl)cccc1NC(=O)c1cn(-c2ccc(F)c(O)c2)nn1 | 5.4 | 
16 |  |  | Cc1ccc(Cl)cc1NC(=O)c1cn(-c2cccc(O)c2Cl)nn1 [TR007, N-(5-chloro-2-methylphenyl)-1-(2-chloro-3-hydroxyphenyl)-1H-1,2,3-triazole-4-carboxamide] |  | EC50 (mtPTP [2]; [8]): > 20 µM; CRC/CRC0 at 1.25 μM (mtPTP [3]; [9]): 1.2 ± 0.1; EC50 [4, 10]: > 40 µM

Row | Compound | EC50 (mtPTP [2]; [5]) [µM] | EC50 [4, 7] [µM] | CRC/CRC0 at 1.25 μM (mtPTP [3]; [6]) | further results
17 | Cc1ccc(Cl)cc1NC(=O)c1cc(-c2ccc(F)c(O)c2)on1 [drawing 45] | 0.002 | > 100 | 13.5 | 
18 | Cc1ccc(Cl)cc1NC(=O)c1cn(-c2ccc(F)c(O)c2)nn1 [drawing 46] | 0.025 | > 100 | 7.4 | 
